According to PMC9611727, “Optimization of a Novel Mandelamide-Derived Pyrrolopyrimidine Series of PERK Inhibitors” (Pharmaceutics, 2022):

What was measured:
Experiment in all cases: scanMAX kinase panel
Type in all cases: binding
Conditions in all cases: read-out: % Control; for remaining binding at 1 µM: 1000 nM
[1] = molecular target: T1, PRKR (Homo sapiens, UniProt P19525)
T1 construct: purchased DiscoverX scanMAX
Excerpt: (§1) Supplemental Table S2. scanMAXSM Kinome Assay Results. Complete tabulated data of all 468 kinases from the panel, including
(§2) 403 wild-type and 65 mutant isoforms. […] Cmpd 11 and Cmpd 24

[2] = molecular target: T2, MAP3K15 (Homo sapiens, UniProt Q6ZN16)
T2 construct: purchased DiscoverX scanMAX
T2 sequence (Q6ZN16 1-1313): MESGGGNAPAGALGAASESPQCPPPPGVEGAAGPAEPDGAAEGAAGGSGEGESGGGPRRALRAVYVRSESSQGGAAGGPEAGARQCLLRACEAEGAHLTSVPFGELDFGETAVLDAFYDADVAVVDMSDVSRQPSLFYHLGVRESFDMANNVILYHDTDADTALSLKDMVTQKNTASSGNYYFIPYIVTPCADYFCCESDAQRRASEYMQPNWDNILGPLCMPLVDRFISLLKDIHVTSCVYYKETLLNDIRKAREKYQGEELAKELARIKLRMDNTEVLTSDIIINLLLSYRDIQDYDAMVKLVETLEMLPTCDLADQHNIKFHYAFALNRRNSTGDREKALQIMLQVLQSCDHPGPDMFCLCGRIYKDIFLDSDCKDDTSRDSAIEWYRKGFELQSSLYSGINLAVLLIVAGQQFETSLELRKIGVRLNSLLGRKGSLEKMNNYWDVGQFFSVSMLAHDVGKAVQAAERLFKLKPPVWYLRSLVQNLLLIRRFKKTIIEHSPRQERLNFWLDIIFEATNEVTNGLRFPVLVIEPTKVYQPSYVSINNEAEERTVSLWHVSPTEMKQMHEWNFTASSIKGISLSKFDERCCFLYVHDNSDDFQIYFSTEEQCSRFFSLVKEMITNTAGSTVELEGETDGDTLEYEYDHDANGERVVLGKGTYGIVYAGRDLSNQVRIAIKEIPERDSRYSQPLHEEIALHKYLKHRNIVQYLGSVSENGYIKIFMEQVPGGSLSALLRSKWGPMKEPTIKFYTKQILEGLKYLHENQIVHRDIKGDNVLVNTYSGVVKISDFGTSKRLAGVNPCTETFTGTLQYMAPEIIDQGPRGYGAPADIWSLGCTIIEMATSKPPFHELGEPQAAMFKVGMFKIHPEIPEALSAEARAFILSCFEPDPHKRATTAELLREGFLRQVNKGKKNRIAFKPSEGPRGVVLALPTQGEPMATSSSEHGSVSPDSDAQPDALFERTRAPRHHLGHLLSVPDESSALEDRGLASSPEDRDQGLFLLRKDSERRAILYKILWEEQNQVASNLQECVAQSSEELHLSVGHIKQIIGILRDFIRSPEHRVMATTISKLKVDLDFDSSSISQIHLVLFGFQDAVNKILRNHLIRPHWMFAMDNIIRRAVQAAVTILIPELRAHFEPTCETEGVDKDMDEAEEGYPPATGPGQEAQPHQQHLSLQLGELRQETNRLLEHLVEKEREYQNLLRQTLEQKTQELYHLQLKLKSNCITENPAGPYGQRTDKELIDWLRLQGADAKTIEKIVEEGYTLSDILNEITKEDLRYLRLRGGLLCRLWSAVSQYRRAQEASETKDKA
Excerpt: as §1, §2

[3] = molecular target: T3, MAP3K3 (Homo sapiens, UniProt Q99759)
T3 construct: purchased DiscoverX scanMAX
T3 sequence (Q99759 1-626): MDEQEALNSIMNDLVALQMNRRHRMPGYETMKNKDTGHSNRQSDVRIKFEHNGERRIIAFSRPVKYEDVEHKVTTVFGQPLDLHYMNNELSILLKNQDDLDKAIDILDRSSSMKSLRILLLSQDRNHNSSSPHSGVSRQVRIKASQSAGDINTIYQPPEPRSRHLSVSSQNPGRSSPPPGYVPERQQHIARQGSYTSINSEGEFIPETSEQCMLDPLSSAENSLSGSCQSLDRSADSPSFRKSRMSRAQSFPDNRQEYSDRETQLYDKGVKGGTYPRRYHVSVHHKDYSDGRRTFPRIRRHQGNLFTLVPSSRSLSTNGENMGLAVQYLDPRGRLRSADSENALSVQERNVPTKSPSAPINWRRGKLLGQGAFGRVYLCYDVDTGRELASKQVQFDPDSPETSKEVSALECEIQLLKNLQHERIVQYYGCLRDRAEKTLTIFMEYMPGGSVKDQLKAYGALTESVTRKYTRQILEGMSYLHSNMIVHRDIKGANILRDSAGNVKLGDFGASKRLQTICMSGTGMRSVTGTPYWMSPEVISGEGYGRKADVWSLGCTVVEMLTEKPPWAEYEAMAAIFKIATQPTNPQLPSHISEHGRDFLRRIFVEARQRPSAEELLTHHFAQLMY
Excerpt: as §1, §2

[4] = molecular target: T4, FLT3(N841I) (Homo sapiens, UniProt P36888, N841I)
T4 construct: purchased DiscoverX scanMAX
T4 sequence (P36888 27-993 N841I): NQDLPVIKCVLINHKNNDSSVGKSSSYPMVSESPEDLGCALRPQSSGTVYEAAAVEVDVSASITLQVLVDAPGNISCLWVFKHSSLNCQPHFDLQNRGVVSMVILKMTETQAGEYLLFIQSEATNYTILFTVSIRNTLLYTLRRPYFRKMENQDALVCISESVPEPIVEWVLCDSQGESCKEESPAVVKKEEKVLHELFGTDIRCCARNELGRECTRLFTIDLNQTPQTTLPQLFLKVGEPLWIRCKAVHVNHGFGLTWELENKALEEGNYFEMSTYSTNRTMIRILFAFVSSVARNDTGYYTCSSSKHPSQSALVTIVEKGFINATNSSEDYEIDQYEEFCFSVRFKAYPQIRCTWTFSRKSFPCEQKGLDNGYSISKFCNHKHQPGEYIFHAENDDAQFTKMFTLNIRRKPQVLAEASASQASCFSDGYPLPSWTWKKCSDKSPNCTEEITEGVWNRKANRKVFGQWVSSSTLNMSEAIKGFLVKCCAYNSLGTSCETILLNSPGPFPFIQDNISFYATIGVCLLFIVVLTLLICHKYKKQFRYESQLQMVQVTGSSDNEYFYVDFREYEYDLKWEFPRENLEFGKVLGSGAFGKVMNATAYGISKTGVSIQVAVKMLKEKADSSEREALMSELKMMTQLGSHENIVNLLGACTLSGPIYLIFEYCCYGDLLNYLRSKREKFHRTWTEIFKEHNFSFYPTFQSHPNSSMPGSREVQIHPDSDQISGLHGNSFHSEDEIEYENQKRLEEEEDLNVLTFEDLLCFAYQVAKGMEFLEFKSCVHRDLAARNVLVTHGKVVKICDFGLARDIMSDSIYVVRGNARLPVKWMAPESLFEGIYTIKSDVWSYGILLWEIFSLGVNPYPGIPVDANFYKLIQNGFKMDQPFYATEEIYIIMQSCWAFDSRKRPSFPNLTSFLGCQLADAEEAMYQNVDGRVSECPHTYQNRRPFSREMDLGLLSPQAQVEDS
Excerpt: as §1, §2

T1 sequence (P19525 whole entry): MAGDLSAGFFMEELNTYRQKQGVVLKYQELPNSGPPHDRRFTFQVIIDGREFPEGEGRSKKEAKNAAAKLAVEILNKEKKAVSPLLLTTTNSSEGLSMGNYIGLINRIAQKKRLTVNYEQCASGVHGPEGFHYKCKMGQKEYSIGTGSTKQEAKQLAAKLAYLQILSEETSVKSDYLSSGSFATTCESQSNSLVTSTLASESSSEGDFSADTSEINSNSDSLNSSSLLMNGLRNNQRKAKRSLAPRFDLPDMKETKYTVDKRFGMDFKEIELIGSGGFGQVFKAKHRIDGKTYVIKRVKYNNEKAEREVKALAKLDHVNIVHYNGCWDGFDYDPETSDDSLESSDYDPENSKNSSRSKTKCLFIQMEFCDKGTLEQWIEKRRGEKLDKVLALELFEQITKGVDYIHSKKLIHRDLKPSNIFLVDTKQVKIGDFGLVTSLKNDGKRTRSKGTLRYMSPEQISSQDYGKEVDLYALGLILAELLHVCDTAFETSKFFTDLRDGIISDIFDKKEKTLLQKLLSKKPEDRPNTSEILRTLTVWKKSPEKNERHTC

Compound	remaining binding at 1 µM [1]	remaining binding at 1 µM [2]	remaining binding at 1 µM [3]	remaining binding at 1 µM [4]	remaining binding at 0.1 µM ([1]; 100 nM)	remaining binding at 0.1 µM ([2]; 100 nM)	remaining binding at 0.1 µM ([3]; 100 nM)	remaining binding at 0.1 µM ([4]; 100 nM)
Cc1cc(NC(=O)[C@H](O)c2cccc(F)c2)ccc1-c1cn(C)c2ncnc(N)c12 [Compound 11, (R)-N-(4-(4-amino-7-methyl-7H-pyrrolo[2,3-d]pyrimidin-5-yl)-3-methylphenyl)-2-(3-fluorophenyl)-2-hydroxy acetamide]	42%	29%	32%	0.3%	–	–	–	–
Cc1nc(N)c2c(-c3ccc(NC(=O)[C@H](O)c4cccc(F)c4)cc3C)cn(C)c2n1 [Compound 24]	42%	82%	100%	100%	–	–	–	–
Cc1nc(N)c2c(-c3ccc(NC(=O)[C@H](O)c4cccc(C(F)(F)F)c4)cc3C)cn(C)c2n1 [Compound 26]	96%	99%	92%	0%	91%	100%	100%	34%
